These results are taken from patent publication US20160235752A1, “COMPOSITIONS, METHODS OF USE, AND METHODS OF TREATMENT” (THE UNIVERSITY OF NEW ORLEANS, priority 2013, published 2016).

The subject of data set [1] is Candida albicans (ATCC no. 10231). In words: MIC determination by broth microdilution (NCCLS), visual scoring. It is filed as cell-based. As to conditions: for MIC80: Candida albicans, ATCC10231, read-out: MIC80 C. albicans. Summed up:
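NCCLS broth microdilution in RPMI 1640 with 10 mM HEPES, final compound 0.5–128 μg/mL, DMSO ≤1%. Inoculum from 0.5 McFarland stock diluted 1:50; incubated 35 °C for 48–72 h. MIC scored visually as lowest concentration giving ~80% growth reduction versus drug-free wells.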
For orientation: Broth dilution looks for growth in wells or tubes with falling amounts of substance.

Data set [2] has as its system Candida glabrata (ATCC no. 48435). Described as above. It is filed as cell-based. To be noted: for MIC80: Nakaseomyces glabratus, ATCC48435, read-out: MIC80 C. glabrata.
The test system of data set [3] is C. albicans strain SC5314. In words: Testing for respiratory deficiencies: growth in YPD, YPG, YPE. It is filed as cell-based, Candida albicans. The procedure:
(§1) FIGS. 2A and 2B illustrates BA22 activity is enhanced when Candida growth depends upon non-fermentable carbon sources. C. albicans strain SC5314 (FIG. 2A) or C. glabrata strain CS117.93 (FIG. 2B) were grown in medium with 2% glucose (YPD), 3% glycerol (YPG) or 3% ethanol (YPE) at pH 6.5, in dose response experiments with BA22. After 24 hours incubation at 30° C., growth was measured by OD600nm. Growth at each concentration of BA22 is shown as % growth relative to the minus drug (DMSO) control. Data shown is representative of two repeat experiments.
(§2) Considering the significant growth inhibition and lack of overall lack of cytotoxicity of many of the phenylhydrazones, we further explored potential mechanisms of action using the compound BA22 as a representative drug. We initially observed that in the presence of BA22, C. albicans formed small colonies similar to respiration deficient ‘petite’ mutants previously described for Saccharomyces. […] We therefore determined if BA22 affected the ability of C. albicans or C. glabrata to use glycerol or ethanol as carbon sources. […]
(§3) Respiratory deficiencies were examined using YPD (2% glucose), YPE (3% ethanol), or YPG (3% glycerol)^31. […] After 24 and 48 hours incubation at 30° C., growth was quantified by measuring OD600nm using a BioTek plate reader. Growth at each BA concentration was then expressed as % growth vs. the DMSO control of the same medium.

The subject of data set [4] is C. glabrata strain CS117.93. The data set is described as above. It is filed as cell-based, Candida glabrata. The procedure:
as §1, §2, §3

The next data set concerns C. albicans. In words: Colony formation on agar plates enriched with BA22. It is filed as cell-based, Candida albicans. To be noted: agar plates enriched with a range of BA22 concentrations; data not shown. An excerpt:
Considering the significant growth inhibition and lack of overall lack of cytotoxicity of many of the phenylhydrazones, we further explored potential mechanisms of action using the compound BA22 as a representative drug. We initially observed that in the presence of BA22, C. albicans formed small colonies similar to respiration deficient ‘petite’ mutants previously described for Saccharomyces. […] This phenotype somewhat resembles that of respiration deficient ‘petite’ mutants, which are unable to utilize non-fermentable carbon sources such as glycerol and ethanol^30. We therefore determined if BA22 affected the ability of C. albicans or C. glabrata to use glycerol or ethanol as carbon sources. The concentrations of BA22 required to inhibit the growth of either fungi were much lower when glycerol or ethanol is provided as a carbon source versus glucose (FIG. 2). […] Growth inhibition occurred at higher BA22 concentrations in glucose medium, possibly indicating an additional secondary mechanism.

Data set [5] has as its system Vero cells (African green monkey kidney cells-ATCC no. CRL-1651). In words: In vitro mammalian cell toxicity (Promega CellTiter 96, MTT). As to conditions: cells from the kidney origin; 24 hours; concentration not given. It is filed as cell-based. The procedure: Finally, in vitro mammalian cell toxicity studies were done using both mammalian kidney cells and human liver cells (Vero (kidney) cells-ATCC no. CRL-1651 and Hep G2 (liver) ATCC no. HB-8065) on all derivatives that had antifungal activity of less than 8 μg/mL. Cytotoxicity studies were performed in accordance with Promega CellTiter 96 Non-RadioactivCell Proliferation Assay (cat # G4000). The data is presented as the percent cells that remain viable, compared to the negative control, which was set to 100%. BA22, BA23 and BA73 had minimal toxicity in the kidney cells, with over 80% cells viable even at a concentration 10 times higher than the MIC (Table 7).
Cytotoxicity was determined using non-cancerous Vero cells (African green monkey kidney cells-ATCC no. CRL-1651) and Hep G2 (liver) (ATCC no. HB-8065) cells in accordance with Promega CellTiter 96 Non-RadioactivCell Proliferation Assay (cat # G4000). Cells were grown for 24 h at 37° C. and 5% CO2 in a 96-well culture plate. All compounds with MIC≦8 μg/ml were further screened in the MTT assays using both cell types. Compounds that fit these criteria were diluted in media to the testing dilution amounts: the MIC concentration (shown in respective tables; 5×MIC; 10×MIC and 100×MIC. The media used to grow cells was DMEM containing 10% FBS and 2%. Cells were incubated in the presence of the compounds for 24 hours at 37° C. and 5% CO2. Tetrazolium dye solution was added to each well and allowed to incubate for 1-4 h. Stabilization/Stop solution was added and allowed to sit at room temperature for 1 h. Formazan product was scored spectrophotometrically with an automatic plate reader set at 570 nm. 0.1% saponin was used as a positive control. 1% DMSO controls were also used since the compounds were reconstituted in DMSO.

Setting [6] is: YPG 3% glycerol or YPE 3% ethanol versus YPD 2% glucose, pH 6.5, 30° C., OD600nm.

In brackets after ≈: the same amount, converted by molar mass.

`O=C1NC(=O)C(/C=N/Nc2ccc([N+](=O)[O-])cc2)C(=O)N1` [BA22, 5-{(E)-[2-(4-nitrophenyl)hydrazinylidene]methyl}pyrimidine-2,4,6-trione]: the values for the MIC80 in data set [1] and in data set [2] were 2 µg/mL (≈ 6.87 µM) and 1 µg/mL (≈ 3.43 µM), respectively. The “activity when Candida growth depends upon non-fermentable carbon sources” value in data set [3] (FIG. 2A, 24 hours, 30° C., % growth relative to DMSO control) is “enhanced”; in data set [4] (FIG. 2B, 24 hours, 30° C., % growth relative to DMSO control), “enhanced”. In addition, the “concentrations of BA22 required to inhibit the growth, glycerol or ethanol versus glucose” value in data set [3] (setting [6]) and in data set [4] (setting [6]) was “much lower” throughout. For the same compound, the “C. albicans colony formation” value with C. albicans is listed as “significantly delayed in a dose dependent manner, eventually forming small colonies”.
In the case of `C/C(=N\Nc1ccc([N+](=O)[O-])cc1)C1C(=O)NC(=O)NC1=O` [BA25, 5-{(1E)-1-[2-(4-Nitrophenyl)hydrazinylidene]ethyl}pyrimidine-2,4,6-trione], the MIC80 in data set [1] and in data set [2] was 2 µg/mL (≈ 6.55 µM) throughout. For the same compound, in data set [5], the “reduction in cell viability” value is on record as roughly 35%.
For `C/C(=N\Nc1ccccc1)C1C(=O)N(C)C(=O)N(C)C1=O` [BA78, 1,3-dimethyl-5-[(1E)-1-(2-phenylhydrazinylidene)ethyl]pyrimidine-2,4,6-trione], the MIC80 in data set [1] and in data set [2] was 2 µg/mL (≈ 6.94 µM) each time. The “reduction in cell viability” value in data set [5] is reported as roughly 35%.
For `CN1C(=O)C(C=Nc2ccccc2O)C(=O)N(C)C1=O` [BA94], in data set [1] (Schiff base derivatives, Table 5), the “inhibitory activity of Candida albicans” value is “showed inhibitory activity”. Moreover, in data set [1] (Table 5, values marked *: compound displayed MIC with <50% inhibition), the “MIC80 C. albicans” value is given as 8* μg/mL. The “MIC80 C. glabrata” value in data set [2] (Table 5, Schiff Bases of 5-acylpyrimidinetriones) is recorded as “— (none of the 5-acyl-2,4,6-pyrimidinetriones, 5-alkylated pyrimidinetriones or the 5,5-dialkylated pyrimidinetriones showed antifungal activity through 125 μg/mL)”. Besides, the “reduction in cell viability” value in data set [5] is roughly 35%.

The term MIC80 denotes the lowest concentration that inhibits either 80% of growth or 80% of the strains tested, depending on the study.
